# Test: Safety and tolerability
# Details: for Subjects with TEAEs: all evobrutinib doses pooled
# [1] = one subject, 200 mg single dose, day 11
# [2] = part 1 single dosing, pooled evobrutinib
# [3] = part 2 multiple dosing, pooled evobrutinib
smiles,measurement,setting,value
C=CC(=O)N1CCC(CNc2ncnc(N)c2-c2ccc(Oc3ccccc3)cc2)CC1 [evobrutinib],TEAE: Abdominal pain,"SAD 100 mg, n = 6","0 (0.0) n (%), (number of events)"
same,TEAE: Amylase increased,"SAD 100 mg, n = 6","0 (0.0) n (%), (number of events)"
same,TEAE: Application site pruritus (due to ECG stickers),"SAD 100 mg, n = 6","0 (0.0) n (%), (number of events)"
same,TEAE: Back pain,"SAD 100 mg, n = 6","0 (0.0) n (%), (number of events)"
same,TEAE: Contact dermatitis,"SAD 100 mg, n = 6","0 (0.0) n (%), (number of events)"
same,TEAE: Dizziness,"SAD 100 mg, n = 6","0 (0.0) n (%), (number of events)"
same,TEAE: Dry eye,"SAD 100 mg, n = 6","0 (0.0) n (%), (number of events)"
same,TEAE: Dry mouth,"SAD 100 mg, n = 6","0 (0.0) n (%), (number of events)"
same,TEAE: Dyspepsia,"SAD 100 mg, n = 6","0 (0.0) n (%), (number of events)"
same,TEAE: Excoriation,"SAD 100 mg, n = 6","0 (0.0) n (%), (number of events)"
same,TEAE: Headache,"SAD 100 mg, n = 6","0 (0.0) n (%), (number of events)"
same,TEAE: Lipase increased,"SAD 100 mg, n = 6","0 (0.0) n (%), (number of events)"
same,TEAE: Multiple injuries,"SAD 100 mg, n = 6","0 (0.0) n (%), (number of events)"
same,TEAE: Nasal congestion,"SAD 100 mg, n = 6","1 (16.7) (1) n (%), (number of events)"
same,TEAE: Noncardiac chest pain,"SAD 100 mg, n = 6","0 (0.0) n (%), (number of events)"
same,TEAE: Odynophagia,"SAD 100 mg, n = 6","0 (0.0) n (%), (number of events)"
same,TEAE: Overall total,"SAD 100 mg, n = 6","1 (16.7) (1) n (%), (number of events)"
same,TEAE: URTI,"SAD 100 mg, n = 6","0 (0.0) n (%), (number of events)"
same,TEAE: Abdominal pain,"SAD 200 mg, n = 6","0 (0.0) n (%), (number of events)"
same,TEAE: Amylase increased,"SAD 200 mg, n = 6","1 (16.7) (1) n (%), (number of events)"
same,TEAE: Application site pruritus (due to ECG stickers),"SAD 200 mg, n = 6","0 (0.0) n (%), (number of events)"
same,TEAE: Back pain,"SAD 200 mg, n = 6","0 (0.0) n (%), (number of events)"
same,TEAE: Contact dermatitis,"SAD 200 mg, n = 6","0 (0.0) n (%), (number of events)"
same,TEAE: Dizziness,"SAD 200 mg, n = 6","1 (16.7) (1) n (%), (number of events)"
same,TEAE: Dry eye,"SAD 200 mg, n = 6","0 (0.0) n (%), (number of events)"
same,TEAE: Dry mouth,"SAD 200 mg, n = 6","0 (0.0) n (%), (number of events)"
same,TEAE: Dyspepsia,"SAD 200 mg, n = 6","0 (0.0) n (%), (number of events)"
same,TEAE: Excoriation,"SAD 200 mg, n = 6","1 (16.7) (1) n (%), (number of events)"
same,TEAE: Headache,"SAD 200 mg, n = 6","0 (0.0) n (%), (number of events)"
same,TEAE: Lipase increased,"SAD 200 mg, n = 6","1 (16.7) (1) n (%), (number of events)"
same,TEAE: Multiple injuries,"SAD 200 mg, n = 6","0 (0.0) n (%), (number of events)"
same,TEAE: Nasal congestion,"SAD 200 mg, n = 6","0 (0.0) n (%), (number of events)"
same,TEAE: Noncardiac chest pain,"SAD 200 mg, n = 6","0 (0.0) n (%), (number of events)"
same,TEAE: Odynophagia,"SAD 200 mg, n = 6","0 (0.0) n (%), (number of events)"
same,TEAE: Overall total,"SAD 200 mg, n = 6","2 (33.3) (4) n (%), (number of events)"
same,TEAE: URTI,"SAD 200 mg, n = 6","0 (0.0) n (%), (number of events)"
same,TEAE: Abdominal pain,"SAD 350 mg, n = 6","0 (0.0) n (%), (number of events)"
same,TEAE: Amylase increased,"SAD 350 mg, n = 6","0 (0.0) n (%), (number of events)"
same,TEAE: Application site pruritus (due to ECG stickers),"SAD 350 mg, n = 6","0 (0.0) n (%), (number of events)"
same,TEAE: Back pain,"SAD 350 mg, n = 6","0 (0.0) n (%), (number of events)"
same,TEAE: Contact dermatitis,"SAD 350 mg, n = 6","0 (0.0) n (%), (number of events)"
same,TEAE: Dizziness,"SAD 350 mg, n = 6","0 (0.0) n (%), (number of events)"
same,TEAE: Dry eye,"SAD 350 mg, n = 6","0 (0.0) n (%), (number of events)"
same,TEAE: Dry mouth,"SAD 350 mg, n = 6","0 (0.0) n (%), (number of events)"
same,TEAE: Dyspepsia,"SAD 350 mg, n = 6","0 (0.0) n (%), (number of events)"
same,TEAE: Excoriation,"SAD 350 mg, n = 6","0 (0.0) n (%), (number of events)"
same,TEAE: Headache,"SAD 350 mg, n = 6","0 (0.0) n (%), (number of events)"
same,TEAE: Lipase increased,"SAD 350 mg, n = 6","0 (0.0) n (%), (number of events)"
same,TEAE: Multiple injuries,"SAD 350 mg, n = 6","1 (16.7) (1) n (%), (number of events)"
same,TEAE: Nasal congestion,"SAD 350 mg, n = 6","0 (0.0) n (%), (number of events)"
same,TEAE: Noncardiac chest pain,"SAD 350 mg, n = 6","0 (0.0) n (%), (number of events)"
same,TEAE: Odynophagia,"SAD 350 mg, n = 6","0 (0.0) n (%), (number of events)"
same,TEAE: Overall total,"SAD 350 mg, n = 6","1 (16.7) (1) n (%), (number of events)"
same,TEAE: URTI,"SAD 350 mg, n = 6","0 (0.0) n (%), (number of events)"
same,TEAE: Abdominal pain,"SAD 500 mg, n = 6","0 (0.0) n (%), (number of events)"
same,TEAE: Amylase increased,"SAD 500 mg, n = 6","0 (0.0) n (%), (number of events)"
same,TEAE: Application site pruritus (due to ECG stickers),"SAD 500 mg, n = 6","0 (0.0) n (%), (number of events)"
same,TEAE: Back pain,"SAD 500 mg, n = 6","0 (0.0) n (%), (number of events)"
same,TEAE: Contact dermatitis,"SAD 500 mg, n = 6","0 (0.0) n (%), (number of events)"
same,TEAE: Dizziness,"SAD 500 mg, n = 6","0 (0.0) n (%), (number of events)"
same,TEAE: Dry eye,"SAD 500 mg, n = 6","1 (16.7) (1) n (%), (number of events)"
same,TEAE: Dry mouth,"SAD 500 mg, n = 6","0 (0.0) n (%), (number of events)"
same,TEAE: Dyspepsia,"SAD 500 mg, n = 6","0 (0.0) n (%), (number of events)"
same,TEAE: Excoriation,"SAD 500 mg, n = 6","0 (0.0) n (%), (number of events)"
same,TEAE: Headache,"SAD 500 mg, n = 6","1 (16.7) (1) n (%), (number of events)"
same,TEAE: Lipase increased,"SAD 500 mg, n = 6","0 (0.0) n (%), (number of events)"
same,TEAE: Multiple injuries,"SAD 500 mg, n = 6","0 (0.0) n (%), (number of events)"
same,TEAE: Nasal congestion,"SAD 500 mg, n = 6","0 (0.0) n (%), (number of events)"
same,TEAE: Noncardiac chest pain,"SAD 500 mg, n = 6","0 (0.0) n (%), (number of events)"
same,TEAE: Odynophagia,"SAD 500 mg, n = 6","1 (16.7) (1) n (%), (number of events)"
same,TEAE: Overall total,"SAD 500 mg, n = 6","2 (33.3) (3) n (%), (number of events)"
same,TEAE: URTI,"SAD 500 mg, n = 6","0 (0.0) n (%), (number of events)"
same,TEAE: Abdominal pain,"SAD pooled active, n = 36","0 (0.0) n (%), (number of events)"
same,TEAE: Amylase increased,"SAD pooled active, n = 36","1 (2.8) (1) n (%), (number of events)"
same,TEAE: Application site pruritus (due to ECG stickers),"SAD pooled active, n = 36","0 (0.0) n (%), (number of events)"
same,TEAE: Back pain,"SAD pooled active, n = 36","1 (2.8) (1) n (%), (number of events)"
same,TEAE: Contact dermatitis,"SAD pooled active, n = 36","2 (5.6) (2) n (%), (number of events)"
same,TEAE: Dizziness,"SAD pooled active, n = 36","1 (2.8) (1) n (%), (number of events)"
same,TEAE: Dry eye,"SAD pooled active, n = 36","1 (2.8) (1) n (%), (number of events)"
same,TEAE: Dry mouth,"SAD pooled active, n = 36","0 (0.0) n (%), (number of events)"
same,TEAE: Dyspepsia,"SAD pooled active, n = 36","1 (2.8) (1) n (%), (number of events)"
same,TEAE: Excoriation,"SAD pooled active, n = 36","1 (2.8) (1) n (%), (number of events)"
same,TEAE: Headache,"SAD pooled active, n = 36","2 (5.6) (3) n (%), (number of events)"
same,TEAE: Lipase increased,"SAD pooled active, n = 36","1 (2.8) (1) n (%), (number of events)"
same,TEAE: Multiple injuries,"SAD pooled active, n = 36","1 (2.8) (1) n (%), (number of events)"
same,TEAE: Nasal congestion,"SAD pooled active, n = 36","1 (2.8) (1) n (%), (number of events)"
same,TEAE: Noncardiac chest pain,"SAD pooled active, n = 36","0 (0.0) n (%), (number of events)"
same,TEAE: Odynophagia,"SAD pooled active, n = 36","1 (2.8) (1) n (%), (number of events)"
same,TEAE: Overall total,"SAD pooled active, n = 36","9 (25.0) (15) n (%), (number of events)"
same,TEAE: URTI,"SAD pooled active, n = 36","0 (0.0) n (%), (number of events)"
same,nontolerated dose,after SAD or MAD administrations,no nontolerated dose could be defined
same,Subjects with TEAEs,after multiple dosing,48.1%
same,Subjects with TEAEs,after single dosing,25%
same,toxicity grade of increased amylase,[1],3 grade
same,toxicity grade of increased lipase (dose‐limiting TEAE),[1],4 grade
same,Subjects with contact dermatitis at locations of ECG pads,[2],5.6%
same,Subjects with headache,[2],5.6%
same,severity of TEAEs,part 2 multiple dosing,All TEAEs reported were mild and no dose‐limiting adverse events were reported
same,Subjects with fatigue,[3],7.4%
same,Subjects with gastrointestinal TEAEs,[3],18.5%
same,Subjects with headache,[3],11.1%
same,Subjects with skin irritation due to ECG pads,[3],7.4%
same,Subjects with upper respiratory tract infection,[3],7.4%
same,deaths or treatment-related SAEs,parts 1 and 2,no deaths or SAEs related to treatment

# — paper PMC7070898 (Clinical and Translational Science, 2019)
